Patent US12390482B2, “Neurolytic agents and methods of using and identifying same” (priority 2021, dated 2025)

Assays:
[1] = test system: WT mouse embryonic dorsal root ganglion (DRG) neurons; assay: Axon degeneration in cultured WT DRG neurons; type: cell-based; conditions: WT DRG neurons
Description: (§1) DRG neuron culture: Mouse DRG culture was as described previously. Mouse DRGs were dissected at embryonic day 13.5. Approximately 50 ganglia were collected from each embryo and dissociated in 0.05% Trypsin containing 0.02% EDTA (Gibco) at 37° C. for 20 min. The DRG neurons were washed 3 times with DRG culture medium after incubation with Trypsin. Cells were seeded as spot cultures in 96-tissue culture plates (Corning) coated with 0.1 mg/ml poly-D-lysine and 0.1 mg/ml laminin. They were cultured in Neurobasal (Gibco) containing 2% B27 (Invitrogen), 100 ng/ml 2.5S NGF (Harlan Bioproducts), and 1 μM 5-fluoro-2′-deoxyuridine/1 μM uridine. The culture medium was exchanged with fresh DRG culture medium every 2-3 days. Lentiviruses were added 3 days after seeding (DIV3).
[…] After axon transection, bright-field images of distal axons were taken using the Operetta automated imaging system (PerkinElmer). Axon degeneration indexes were calculated from these bright-field images using ImageJ (NIH). The axon degeneration index was calculated as the ratio of fragmented axon areas as previously described. Indexes were calculated as the average of six fields per well.

Sarm1 KO DRG neurons [2] = assay: Axon degeneration and neuronal death in cultured Sarm1 KO DRG neurons; type: cell-based, mouse; conditions: escalating doses, even at 1 mM
Description: as §1
Quantification of axon degeneration: After culture for 7 days, axotomy was performed by cutting DRG axons manually with a razor blade. After axon transection, bright-field images of distal axons were taken using the Operetta automated imaging system (PerkinElmer). Axon degeneration indexes were calculated from these bright-field images using ImageJ (NIH). The axon degeneration index was calculated as the ratio of fragmented axon areas as previously described. Indexes were calculated as the average of six fields per well.

[3] = test system: WT mouse embryonic dorsal root ganglion (DRG) neurons; assay: MTT assay of neuronal death in WT DRG neurons; type: cell-based; conditions: 12 hr treatment
Description: as §1

WT DRG neurons = assay: Metabolite measurement by LC-MS/MS in WT DRG neurons; type: cell-based, mouse
Description: as §1
Metabolite measurement using LC-MS/MS: Lyophilized samples were reconstituted with 50 μl of 5 mM ammonium formate and centrifuged at 12,000 g for 10 min. Cleared supernatants were transferred to sample vials. Serial dilutions of standards for each metabolite in 5 mM ammonium formate were used for calibration. HPLC-mass spectrometry analysis was performed on an Agilent 1290 Infinity II liquid chromatography system (Agilent Technologies, Santa Clara, CA) with a flexible pump, multisampler, sample cooler and an MCT containing an Atlantis T3 column (2.1×150 mm, 3 μm) and VanGuard guard cartridge (2.1 mm×5 mm, 3 μm) (Waters, Milford, MA), coupled to an Agilent 6470 Triple Quad mass spectrometer (Agilent Technologies, Santa Clara, CA). The mobile phase (0.15 ml/min) was 5 mM ammonium formate in water (A) and 100% methanol (B). The column was equilibrated with 0% B, maintained after injection for 2 min, then a linear gradient to 20% B applied over 4 min. The column was then ramped to 50% B over 2 min, and held at 50% for 2 min, then reverted back to 0% B over the next 5 min and allowed to re-equilibrate at 0% B for 9 min. The total run time was 24 min per sample. […] Raw data were acquired and quantified using MassHunter Workstation software version B.08.00 for 6400 Series Triple Quadrupole (Agilent Technologies, Santa Clara, CA).

Sarm1 KO DRG neurons [4] = assay: Metabolite measurement by LC-MS/MS in Sarm1 KO DRG neurons; type: cell-based, mouse; conditions: 3-AP-treated Sarm1 KO neurons
Description: as §1
Metabolite measurement using LC-MS/MS: Lyophilized samples were reconstituted with 50 μl of 5 mM ammonium formate and centrifuged at 12,000 g for 10 min. Cleared supernatants were transferred to sample vials. Serial dilutions of standards for each metabolite in 5 mM ammonium formate were used for calibration. […] Raw data were acquired and quantified using MassHunter Workstation software version B.08.00 for 6400 Series Triple Quadrupole (Agilent Technologies, Santa Clara, CA).

[5] = test system: Sarm1 KO DRG neurons expressing W103A, R157A or K193R SARM1 mutants or wildtype SARM1; assay: Axon degeneration in Sarm1 KO DRG neurons infected with lentivirus expressing wildtype or allosteric pocket mutant SARM1; type: cell-based, mouse; conditions: 3-AP 300 μM
Description: as §1
Lentivirus production: Lentivirus production was performed as described previously. HEK 293T cells were seeded with the density of 1×10^6 in 35 mm well tissue culture plate (Corning). […]
Quantification of axon degeneration: After culture for 7 days, axotomy was performed by cutting DRG axons manually with a razor blade. […] Axon degeneration indexes were calculated from these bright-field images using ImageJ (NIH). The axon degeneration index was calculated as the ratio of fragmented axon areas as previously described. Indexes were calculated as the average of six fields per well.

WT mice = assay: Survival after IP injection of 3-AP, WT mice; type: in vivo, mouse
Description: (§2) Mice: All experiments were performed in accordance with the protocols of the Institutional Animal Care and Use Committee of Washington University in St. Louis and the guidelines for the Care and Use of Laboratory Animals of the National Institutes of Health. Mice were housed on a 12 hr light dark cycle with less than 5 mice per cage and with water and food available at all times. Male and female mice were used for all experiments. 5-week old mice were used for IP injection and 5-6-month old mice were used for Surgifoam wrap treatments. Sarm1 KO mice were a gift from Macro Colonna at Department of Pathology and Immunology, Washington University School of Medicine in St. Louis, and C57BL/6 mice were purchased from Jackson Laboratory.
(§3) IP injection and local application of 3-AP to sciatic nerve using Surgifoam wrap 5 week-old mice were used for IP injection experiment. Suitable skin incisions were made at the mid-thigh level of 5 week-old mice, followed by a small incision or blunt dissection to the muscle fascia to permit retraction of the biceps femoris and gluteus superficialis muscles to expose the sciatic nerve. The nerve was carefully separated from surrounding connective tissue and then a 0.5×1 cm piece of sterile absorbable hemostatic material (Surgifoam) soaked in 500 mM 3-AP (or saline control) was wrapped around the sciatic nerve. Wound clips, and/or tissue adhesive were used to close the incision.

Sarm1 KO mice [6] = assay: Survival after IP injection of 3-AP, Sarm1 KO mice; type: in vivo, mouse
Description: as §2
as §3, with “Wound clips, and/or tissue adhesive were used to close the incision.” left out

SARM1 = assay: cADPR levels in sciatic nerve after IP injection, WT mice; type: in vivo, mouse; conditions: 275 mg/kg IP, 3 days post-administration
Description: as §2
(§4) Metabolite measurement using LC-MS/MS: Lyophilized samples were reconstituted with 50 μl of 5 mM ammonium formate and centrifuged at 12,000 g for 10 min. Cleared supernatants were transferred to sample vials. Serial dilutions of standards for each metabolite in 5 mM ammonium formate were used for calibration. […] Raw data were acquired and quantified using MassHunter Workstation software version B.08.00 for 6400 Series Triple Quadrupole (Agilent Technologies, Santa Clara, CA). […]

Sarm1 KO mice [7] = assay: cADPR levels in sciatic nerve after IP injection, Sarm1 KO mice; type: in vivo, mouse; conditions: similar IP injections
Description: as §2, §4

sciatic nerve of WT mice = assay: Local application to sciatic nerve using Surgifoam wrap, WT mice; type: in vivo, mouse
Description: as §2, §3
Tissue processing: Tibial nerves from both control and 3-AP treated sides was dissected out 7 days post-surgery. The distal 2 cm portion of the nerve was fixed in 4% paraformaldehyde for 1 hr at room temperature, then moved to 30% sucrose and embedded in OCT for cryosectioning in the following day. Immunocytochemistry was performed on tibial cryosections using NF200 (Sigma N4142, 1:1000) and MBP (Millipore MAB386, 1:100) followed by anti-rabbit-Alexa488 (1:500) and anti-rat-Cy3 (1:500). The proximal 2 cm portion of the sciatic nerves were fixed in 3% Glutaraldehyde for processing and embedding in epoxy/plastic. Toluidine blue thick sections (400-600 nm thickness) were cut and axon counting was performed using binary image analysis.

[8] = test system: sciatic nerve of Sarm1 KO mice; assay: Local application to sciatic nerve using Surgifoam wrap, Sarm1 KO mice; type: in vivo, mouse; conditions: 500 mM 3-AP, seven days
Description: as §2
as §3, with “Wound clips, and/or tissue adhesive were used to close the incision.” left out

[9] = test system: rabbits, dogs, mice and rats; conditions: early studies; could be blocked by administration of Nam; cited from earlier work

SMILES: CC(=O)c1cccnc1 [3-AP, 3-acetylpyridine]
- doses at which axons rapidly degenerate at a rate similar to that after transection [1]: above 250 μM
- dose at which axons begin to degenerate slowly ([1]; axonal integrity at multiple time points): 250 µM
- effect on axon degeneration and neuronal death (Sarm1 KO DRG neurons [2]): no effect
- neuronal death (MTT assay) [3]: causes neuronal death at similar doses
- NAD+ and ATP levels (WT DRG neurons; 3-AP 300 μM, WT neurons): Substantial NAD^+ and ATP depletion
- decline in NMN (WT DRG neurons; within four hours, p<0.001, n=3): greater than 50%
- changes in the levels of NAD+, ATP, or cADPR (Sarm1 KO DRG neurons [4]): no significant changes
- axons of Sarm1 KO neurons expressing SARM1 W103A, R157A or K193R ([5]; allosteric pocket mutants): remain intact
- axon degeneration in Sarm1 KO neurons expressing wildtype SARM1 ([5]; lentiviral wildtype SARM1): restores 3-AP-induced axon degeneration
- survival (WT mice; 275 mg/kg IP): generally survive
- survival (WT mice; 400 mg/kg IP): die rapidly
- lethality (WT mice; 500 mg/kg IP): rapidly lethal
- lethality (Sarm1 KO mice [6]; 275 mg/kg IP, n=5): no lethality
- survival and phenotype (Sarm1 KO mice [6]; up to 500 mg/kg IP): survive and have no obvious phenotype
- increase of cADPR levels in the sciatic nerve (SARM1): 3-4 fold
- cADPR levels in the sciatic nerve (Sarm1 KO mice [7]): no alteration in cADPR levels
- axon loss in tibial nerve distal to treatment site (sciatic nerve of WT mice; WT mice, 500 mM 3-AP, seven days, vs contralateral or saline-treated nerve): dramatic loss of axons
- gait after local treatment (sciatic nerve of WT mice; WT mice, Surgifoam soaked in 500 mM 3-AP on sciatic nerve): rapidly develop an abnormal gait
- axon damage in the proximal sciatic nerve (sciatic nerve of WT mice; WT mice, proximal to site of 500 mM 3-AP application): no detectable axon damage
- systemic harm after local application (sciatic nerve of WT mice; local application to peripheral nerve): without apparent systemic harm
- axon loss in treated nerve [8]: well protected from axon loss
- toxicity on administration to animals [9]: severe neurotoxicity and death
